Reference: PubChem BioAssay (NCI)
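GI50 marks 50% less growth. The concentration for full growth arrest is given as TGI.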

What was measured:
Test in all cases: DTP human tumour cell line panel, 384-well format
[1] = system: A498 renal
[2] = system: BT-549 breast
[3] = system: CAKI-1 renal
[4] = system: COLO 205 colon
[5] = system: DU-145 prostate
[6] = system: HCT-116 colon
[7] = system: HCT-15 colon
[8] = system: HL-60(TB) leukemia
[9] = system: HOP-62 NSCLC
[10] = system: HOP-92 NSCLC
[11] = system: HT29 colon
[12] = system: K-562 leukemia
[13] = system: KM12 colon
[14] = system: LOX IMVI melanoma
[15] = system: M14 melanoma
[16] = system: MALME-3M melanoma
[17] = system: MCF7 breast
[18] = system: MDA-MB-231 breast
[19] = system: MDA-MB-435 melanoma
[20] = system: MDA-MB-468 breast
[21] = system: MOLT-4 leukemia
[22] = system: NCI-H226 lung
[23] = system: NCI-H23 lung
[24] = system: NCI-H322M lung
[25] = system: NCI-H460 NSCLC
[26] = system: NCI/ADR-RES ovarian
[27] = system: OVCAR-3 ovarian
[28] = system: OVCAR-5 ovarian
[29] = system: OVCAR-8 ovarian
[30] = system: PC-3 prostate
[31] = system: RXF 393 renal
[32] = system: SF-268 CNS
[33] = system: SF-295 CNS
[34] = system: SF-539 CNS
[35] = system: SK-MEL-2 melanoma
[36] = system: SK-MEL-5 melanoma
[37] = system: SK-OV-3 ovarian
[38] = system: SN12C renal
[39] = system: SNB-19 CNS
[40] = system: SNB-75 CNS
[41] = system: SR leukemia
[42] = system: SW-620 colon
[43] = system: T-47D breast
[44] = system: TK-10 renal
[45] = system: U251 glioblastoma
[46] = system: UACC-257 melanoma
[47] = system: UO-31 renal

**Q.** With `C=CC(=O)Nc1cc(Nc2nccc(-c3cn(C)c4ccccc34)n2)c(OC)cc1N(C)CCN(C)C` as the compound, how does the GI50 [1] read?
**A.** 1120 nM

**Q.** What about the TGI [1] of the same compound?
**A.** 2530 nM

**Q.** What about the GI50 [2] of the same compound?
**A.** 1330 nM

**Q.** And the TGI [2]?
**A.** 2620 nM

**Q.** And the GI50 [3]?
**A.** 703 nM

**Q.** What about the TGI [3] of the same compound?
**A.** 2080 nM

**Q.** And the GI50 [4]?
**A.** 1590 nM

**Q.** And the TGI [4]?
**A.** 2950 nM

**Q.** What about the GI50 [5] of the same compound?
**A.** 1140 nM

**Q.** And the TGI [5]?
**A.** 2610 nM

**Q.** What about the GI50 [6] of the same compound?
**A.** 1610 nM

**Q.** What about the TGI [6] of the same compound?
**A.** 3020 nM

**Q.** What about the GI50 [7] of the same compound?
**A.** 1250 nM

**Q.** What about the TGI [7] of the same compound?
**A.** 2600 nM

**Q.** And the GI50 [8]?
**A.** 756 nM

**Q.** What about the TGI [8] of the same compound?
**A.** 1940 nM

**Q.** And the GI50 [9]?
**A.** 1560 nM

**Q.** And the TGI [9]?
**A.** 3370 nM

**Q.** What about the GI50 [10] of the same compound?
**A.** 1150 nM

**Q.** What about the TGI [10] of the same compound?
**A.** 2380 nM

**Q.** And the GI50 [11]?
**A.** 1610 nM

**Q.** And the TGI [11]?
**A.** 2990 nM

**Q.** And the GI50 [12]?
**A.** 1160 nM

**Q.** What about the TGI [12] of the same compound?
**A.** 2390 nM

**Q.** What about the GI50 [13] of the same compound?
**A.** 2560 nM

**Q.** What about the TGI [13] of the same compound?
**A.** 5720 nM

**Q.** What about the GI50 [14] of the same compound?
**A.** 2060 nM

**Q.** What about the TGI [14] of the same compound?
**A.** 3500 nM

**Q.** What about the GI50 [15] of the same compound?
**A.** 1960 nM

**Q.** What about the TGI [15] of the same compound?
**A.** 3390 nM

**Q.** And the GI50 [16]?
**A.** 1150 nM

**Q.** And the TGI [16]?
**A.** 2540 nM

**Q.** What about the GI50 [17] of the same compound?
**A.** 1180 nM

**Q.** What about the TGI [17] of the same compound?
**A.** 2580 nM

**Q.** And the GI50 [18]?
**A.** 1790 nM

**Q.** What about the TGI [18] of the same compound?
**A.** 3210 nM

**Q.** What about the GI50 [19] of the same compound?
**A.** 2000 nM

**Q.** What about the TGI [19] of the same compound?
**A.** 3550 nM

**Q.** And the GI50 [20]?
**A.** 37.8 nM

**Q.** What about the TGI [20] of the same compound?
**A.** 189 nM

**Q.** What about the GI50 [21] of the same compound?
**A.** 921 nM

**Q.** And the TGI [21]?
**A.** 2150 nM

**Q.** And the GI50 [22]?
**A.** 863 nM

**Q.** What about the TGI [22] of the same compound?
**A.** 2200 nM

**Q.** What about the GI50 [23] of the same compound?
**A.** 1870 nM

**Q.** What about the TGI [23] of the same compound?
**A.** 3670 nM

**Q.** And the GI50 [24]?
**A.** 179 nM

**Q.** And the TGI [24]?
**A.** 1120 nM

**Q.** And the GI50 [25]?
**A.** 1760 nM

**Q.** What about the TGI [25] of the same compound?
**A.** 3190 nM

**Q.** What about the GI50 [26] of the same compound?
**A.** 1130 nM

**Q.** What about the TGI [26] of the same compound?
**A.** 2370 nM

**Q.** What about the GI50 [27] of the same compound?
**A.** 1130 nM

**Q.** And the TGI [27]?
**A.** 2460 nM

**Q.** What about the GI50 [28] of the same compound?
**A.** 1620 nM

**Q.** What about the TGI [28] of the same compound?
**A.** 3930 nM

**Q.** What about the GI50 [29] of the same compound?
**A.** 1420 nM

**Q.** What about the TGI [29] of the same compound?
**A.** 2760 nM

**Q.** What about the GI50 [30] of the same compound?
**A.** 1610 nM

**Q.** And the TGI [30]?
**A.** 3090 nM

**Q.** What about the GI50 [31] of the same compound?
**A.** 806 nM

**Q.** What about the TGI [31] of the same compound?
**A.** 2150 nM

**Q.** And the GI50 [32]?
**A.** 1490 nM

**Q.** What about the TGI [32] of the same compound?
**A.** 3230 nM

**Q.** And the GI50 [33]?
**A.** 2620 nM

**Q.** And the TGI [33]?
**A.** 6330 nM

**Q.** And the GI50 [34]?
**A.** 1440 nM

**Q.** And the TGI [34]?
**A.** 2760 nM

**Q.** And the GI50 [35]?
**A.** 354 nM

**Q.** What about the TGI [35] of the same compound?
**A.** 1200 nM

**Q.** What about the GI50 [36] of the same compound?
**A.** 1220 nM

**Q.** What about the TGI [36] of the same compound?
**A.** 2230 nM

**Q.** What about the GI50 [37] of the same compound?
**A.** 1740 nM

**Q.** What about the TGI [37] of the same compound?
**A.** 5730 nM

**Q.** And the GI50 [38]?
**A.** 1330 nM

**Q.** And the TGI [38]?
**A.** 3130 nM

**Q.** What about the GI50 [39] of the same compound?
**A.** 3020 nM

**Q.** What about the TGI [39] of the same compound?
**A.** 8810 nM

**Q.** And the GI50 [40]?
**A.** 2710 nM

**Q.** What about the TGI [40] of the same compound?
**A.** 6410 nM

**Q.** And the GI50 [41]?
**A.** 602 nM

**Q.** What about the TGI [41] of the same compound?
**A.** 1290 nM

**Q.** What about the GI50 [42] of the same compound?
**A.** 1760 nM

**Q.** What about the TGI [42] of the same compound?
**A.** 3180 nM

**Q.** And the GI50 [43]?
**A.** 957 nM

**Q.** What about the TGI [43] of the same compound?
**A.** 2380 nM

**Q.** And the GI50 [44]?
**A.** 317 nM

**Q.** And the TGI [44]?
**A.** 1770 nM

**Q.** And the GI50 [45]?
**A.** 1800 nM

**Q.** And the TGI [45]?
**A.** 3250 nM

**Q.** And the GI50 [46]?
**A.** 840 nM

**Q.** And the TGI [46]?
**A.** 1580 nM

**Q.** And the GI50 [47]?
**A.** 746 nM

**Q.** And the TGI [47]?
**A.** 2120 nM

**Q.** What does the source list for `Cn1cc(-c2cc3c(N4CCN(c5ncc([C@@](C)(N)c6ccc(F)cc6)cn5)CC4)ncnn3c2)cn1`?
**A.** GI50 [1]: 3120 nM; TGI [1]: 9790 nM; GI50 [2]: 2520 nM; TGI [2]: 7850 nM; GI50 [3]: 3710 nM; TGI [3]: 17600 nM; GI50 [4]: 2730 nM; TGI [4]: 6510 nM; GI50 [5]: 5670 nM; TGI [5]: > 45100 nM; GI50 [6]: 3390 nM; TGI [6]: 12300 nM; GI50 [7]: 2970 nM; TGI [7]: 20200 nM; GI50 [8]: 2240 nM; TGI [8]: 4940 nM; GI50 [9]: 3140 nM; TGI [9]: > 50100 nM; GI50 [10]: 2660 nM; TGI [10]: 10200 nM; GI50 [11]: 2650 nM; TGI [11]: > 26200 nM; GI50 [12]: 1120 nM; TGI [12]: 2790 nM; GI50 [13]: 4110 nM; TGI [13]: 28100 nM; GI50 [14]: 881 nM; TGI [14]: 3470 nM; GI50 [15]: 4420 nM; TGI [15]: 19200 nM; GI50 [16]: 2460 nM; TGI [16]: 5790 nM; GI50 [17]: 2310 nM; TGI [17]: 8700 nM; GI50 [18]: 3470 nM; TGI [18]: > 35400 nM; GI50 [19]: 7130 nM; TGI [19]: 27000 nM; GI50 [20]: 1120 nM; TGI [20]: 3030 nM; GI50 [21]: 1380 nM; TGI [21]: 2730 nM; GI50 [22]: 3510 nM; TGI [22]: 28200 nM; GI50 [23]: 2230 nM; TGI [23]: 14200 nM; GI50 [24]: 6680 nM; TGI [24]: 21500 nM; GI50 [25]: 3730 nM; TGI [25]: 12500 nM; GI50 [26]: 3190 nM; TGI [26]: 17900 nM; GI50 [27]: 6110 nM; TGI [27]: 18000 nM; GI50 [28]: 5610 nM; TGI [28]: 29500 nM; GI50 [29]: 4070 nM; TGI [29]: > 50800 nM; GI50 [30]: 2860 nM; TGI [30]: 13900 nM; GI50 [31]: 1030 nM; TGI [31]: 3020 nM; GI50 [32]: 7570 nM; TGI [32]: 38300 nM; GI50 [33]: 3720 nM; TGI [33]: 19900 nM; GI50 [34]: 2170 nM; TGI [34]: 12200 nM; GI50 [35]: 3840 nM; TGI [35]: 16800 nM; GI50 [36]: 1850 nM; TGI [36]: 3980 nM; GI50 [37]: 7900 nM; TGI [37]: 52700 nM; GI50 [38]: 4540 nM; TGI [38]: 16700 nM; GI50 [39]: 5930 nM; TGI [39]: 24400 nM; GI50 [40]: 2160 nM; TGI [40]: 7030 nM; GI50 [41]: 1580 nM; TGI [41]: 3020 nM; GI50 [42]: 2970 nM; TGI [42]: 11500 nM; GI50 [43]: 1490 nM; TGI [43]: 6160 nM; GI50 [44]: 7290 nM; TGI [44]: 48200 nM; GI50 [45]: 3540 nM; TGI [45]: 25100 nM; GI50 [46]: 2100 nM; TGI [46]: 4760 nM; GI50 [47]: 3600 nM; TGI [47]: 14700 nM
